Results as given in patent US9850283B2, “Macrocyclic inhibitors of the PD-1/PD-L1 and CD80(B7-1)/PD-L1 protein/protein interactions” (BRISTOL-MYERS SQUIBB COMPANY, priority 2013, dated 2017).
Where two headings read alike, the source gives them in different places. Positions of bridges follow the written chain, without caps; N, C: chain ends. Non-standard residues stand in square brackets, D forms with d. Residues, ends and D or L forms follow the SMILES beside them. ξ: configuration not given here. Phe(3,4,5-F3) = N[C@@H](Cc1cc(F)c(F)c(F)c1)C(=O)O; Pro(4,4-F2) = O=C(O)[C@@H]1CC(F)(F)CN1; Pro(4R-NH2) = N[C@H]1CN[C@H](C(=O)O)C1; Bta = N[C@@H](Cc1csc2ccccc12)C(=O)O; cisHyp = O=C(O)[C@@H]1C[C@H](O)CN1; Hyp = O=C(O)[C@@H]1C[C@@H](O)CN1; NMeF = CN[C@@H](Cc1ccccc1)C(=O)O; Thr(3ξ) = CC(O)[C@H](N)C(=O)O; NMeNle = CCCC[C@H](NC)C(=O)O; NMeM = CN[C@@H](CCSC)C(=O)O; NMeA = CN[C@@H](C)C(=O)O; Dab = NCC[C@H](N)C(=O)O; Dap = NC[C@H](N)C(=O)O; ξC = NC(CS)C(=O)O; Sar = CNCC(=O)O

What was measured:
Human PD-L1/PD-1 = biological target: T1, Human PD-L1/PD-1 (Homo sapiens, UniProt Q9NZQ7); assay: HTRF PD-1-Ig/PD-L1-His binding assay (human PD-L1)
T1 construct: made in house; host or cells: HEK293T
How it was run: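 HTRF read-out: Eu cryptate anti-Ig mAb 1 nM final, APC anti-His mAb 20 nM final, added over the binding reaction. Proteins were PD-1-Ig and PD-L1-His ectodomain fusions. Buffer was dPBS, 0.1% BSA, 0.05% Tween-20.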

[1] = biological target: T2, LK35.2-hPD-L1 cells / PE-labeled PD-1-Ig (Homo sapiens, UniProt Q9NZQ7); assay: LK35.2-hPD-L1 cell binding high-content screening assay; format: cell-based
T2 construct: expressed in transfected cells; host or cells: LK35.2 mouse B cell line
How it was run: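 Fluorescent PD-1-Ig binding to PD-L1-expressing LK35.2 cells, imaged after washing. Conditions: 1 nM PE-PD-1-Ig, 37 °C, 1 h, RPMI with 10% fetal calf serum.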

[2] = cluster symbol, read-out: HTRF IC50 cluster
[3] = cluster symbol, cell line of CBA not given (LK35.2-hPD-L1 or 293T-hPD-L1), read-out: CBA IC50 cluster
[4] = cell binding assay, cell line not given, value given instead of cluster, read-out: CBA IC50 value
[5] = cell binding assay, cell line not given, cluster symbol, read-out: CBA IC50 cluster

T2 sequence (Q9NZQ7 19-290): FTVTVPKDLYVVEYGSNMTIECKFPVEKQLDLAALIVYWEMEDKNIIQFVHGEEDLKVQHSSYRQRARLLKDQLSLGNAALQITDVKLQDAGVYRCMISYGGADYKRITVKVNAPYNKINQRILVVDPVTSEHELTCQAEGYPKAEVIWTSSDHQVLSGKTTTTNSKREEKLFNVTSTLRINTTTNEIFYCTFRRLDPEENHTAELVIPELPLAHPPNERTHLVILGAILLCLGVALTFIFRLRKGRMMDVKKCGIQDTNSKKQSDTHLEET
T1 sequence (Q9NZQ7 with tags, fused parts or gaps): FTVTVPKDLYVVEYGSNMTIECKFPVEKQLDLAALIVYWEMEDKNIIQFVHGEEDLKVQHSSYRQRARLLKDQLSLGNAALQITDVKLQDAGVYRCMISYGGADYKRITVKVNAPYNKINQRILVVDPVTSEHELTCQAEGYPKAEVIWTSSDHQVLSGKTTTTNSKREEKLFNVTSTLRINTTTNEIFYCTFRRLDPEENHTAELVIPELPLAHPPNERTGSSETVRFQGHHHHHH

SMILES	IC50 (Human PD-L1/PD-1; [2])	IC50 [1, 3]	IC50 [1, 4]	IC50 [1, 5]	IC50 (Human PD-L1/PD-1; value given instead of cluster, read-out: HTRF IC50 value)
CCCC[C@H]1C(=O)N(C)[C@@H](CCCC)C(=O)N[C@@H](CCCNC(=N)N)C(=O)N[C@H](C(=O)NCC(N)=O)CSCC(=O)N[C@@H](Cc2ccc(O)cc2)C(=O)N2CCC[C@H]2C(=O)N[C@@H](CC(N)=O)C(=O)N2CCC[C@H]2C(=O)N[C@@H](Cc2cnc[nH]2)C(=O)N[C@@H](CC(C)C)C(=O)N2C[C@@H](O)C[C@H]2C(=O)N[C@@H](Cc2c[nH]c3ccccc23)C(=O)N[C@@H](CO)C(=O)N[C@@H](Cc2c[nH]c3ccccc23)C(=O)N1C [Example 1148] ({CH2CO}-YPNPHL[cisHyp]WSW[NMeNle][NMeNle]RCG-NH2; thioether N-14)	6.76 to 30.3 nM	4.78 to 72.9 nM			
CCCC[C@H]1C(=O)N(C)CC(=O)N[C@@H](CC(=O)O)C(=O)N[C@@H](C(C)C)C(=O)N(C)[C@@H](Cc2ccccc2)C(=O)N[C@@H](Cc2ccc(O)cc2)C(=O)N(C)CC(=O)N[C@@H](Cc2c[nH]c3ccccc23)C(=O)N[C@@H](Cc2ccc(O)cc2)C(=O)N[C@@H](CC(C)C)C(=O)N[C@H](C(=O)NCC(N)=O)CSCC(=O)N[C@@H](Cc2cc(F)c(F)c(F)c2)C(=O)N(C)[C@@H](Cc2ccccc2)C(=O)N1C [Example 3144] ({CH2CO}-[Phe(3,4,5-F3)][NMeF][NMeNle][Sar]DV[NMeF]Y[Sar]WYLCG-NH2; thioether N-13)	6.76 to 30.3 nM	0.158 to 4.71 nM			
CCCC[C@H]1C(=O)N(C)[C@@H](CCCC)C(=O)N[C@@H](CCCNC(=N)N)C(=O)N[C@H](C(=O)NCC(N)=O)CSCC(=O)N[C@@H](Cc2ccccc2)C(=O)N(C)[C@@H](C)C(=O)N[C@@H](CC(N)=O)C(=O)N2CCC[C@H]2C(=O)N[C@@H](Cc2cnc[nH]2)C(=O)N[C@@H](CC(C)C)C(=O)N2CC(F)(F)C[C@H]2C(=O)N[C@@H](Cc2c[nH]c3ccccc23)C(=O)N[C@@H](CO)C(=O)N[C@@H](Cc2c[nH]c3ccccc23)C(=O)N1C [Example 1197] ({CH2CO}-F[NMeA]NPHL[Pro(4,4-F2)]WSW[NMeNle][NMeNle]RCG-NH2; thioether N-14)	6.76 to 30.3 nM	4.78 to 72.9 nM			
CCCC[C@H]1C(=O)N(C)[C@@H](CCCC)C(=O)N[C@@H](CCCNC(=N)N)C(=O)N[C@H](C(=O)NCC(N)=O)CSCC(=O)N[C@@H](Cc2ccccc2)C(=O)N(C)[C@@H](C)C(=O)N[C@@H](CC(N)=O)C(=O)N2CCC[C@H]2C(=O)N[C@@H](Cc2cnc[nH]2)C(=O)N[C@@H](CCCNC(=N)N)C(=O)N(C)CC(=O)N[C@@H](Cc2c[nH]c3ccccc23)C(=O)N[C@@H](CO)C(=O)N[C@@H](Cc2c[nH]c3ccccc23)C(=O)N1C [Example 6003] ({CH2CO}-F[NMeA]NPHR[Sar]WSW[NMeNle][NMeNle]RCG-NH2; thioether N-14)	6.76 to 30.3 nM		72.9 nM		
CCCC[C@H]1C(=O)N(C)[C@@H](CCCC)C(=O)N[C@@H](CCCNC(=N)N)C(=O)NC(C(=O)NCC(N)=O)CSCC(=O)N[C@@H](Cc2ccc(O)cc2)C(=O)N(C)[C@@H](C)C(=O)N[C@@H](CC(N)=O)C(=O)N2CCC[C@H]2C(=O)N[C@@H](CC(N)=O)C(=O)N[C@@H](CC(C)C)C(=O)N2C[C@H](O)C[C@H]2C(=O)N[C@@H](Cc2c[nH]c3ccccc23)C(=O)N[C@@H](CO)C(=O)N[C@@H](Cc2csc3ccccc23)C(=O)N1C (some centres unmarked) [Example 9062] ({CH2CO}-Y[NMeA]NPNL[Hyp]WS[Bta][NMeNle][NMeNle]R[ξC]G-NH2; thioether N-14)	0.385 to 6.74 nM			0.158 to 4.71 nM	
CCCC[C@H]1C(=O)N(C)[C@@H](CCCC)C(=O)N[C@@H](CN)C(=O)N[C@H](C(=O)NCC(N)=O)CSCC(=O)N[C@@H](Cc2ccc(O)cc2)C(=O)N(C)[C@@H](C)C(=O)N[C@@H](CC(N)=O)C(=O)N2CCC[C@H]2C(=O)N[C@@H](CN)C(=O)N[C@@H](CCC(N)=O)C(=O)N2C[C@H](O)C[C@H]2C(=O)N[C@@H](Cc2c[nH]c3ccccc23)C(=O)N[C@@H](CCN)C(=O)N[C@@H](Cc2csc3ccccc23)C(=O)N1C [Example 1225] ({CH2CO}-Y[NMeA]NP[Dap]Q[Hyp]W[Dab][Bta][NMeNle][NMeNle][Dap]CG-NH2; thioether N-14)	0.385 to 6.74 nM	0.158 to 4.71 nM			
CCCC[C@H]1C(=O)N(C)[C@@H](CCCC)C(=O)N[C@@H](CCCNC(=N)N)C(=O)N[C@H](C(=O)NCC(N)=O)CSCC(=O)N[C@@H](Cc2ccccc2)C(=O)N(C)[C@@H](C)C(=O)N[C@@H](CC(N)=O)C(=O)N2CCC[C@H]2C(=O)N[C@@H](Cc2cnc[nH]2)C(=O)N[C@@H](C(C)O)C(=O)N(C)CC(=O)N[C@@H](Cc2c[nH]c3ccccc23)C(=O)N[C@@H](CO)C(=O)N[C@@H](Cc2c[nH]c3ccccc23)C(=O)N1C (some centres unmarked) [Example 6005] ({CH2CO}-F[NMeA]NPH[Thr(3ξ)][Sar]WSW[NMeNle][NMeNle]RCG-NH2; thioether N-14)	6.76 to 30.3 nM			4.78 to 72.9 nM	
CCCC[C@H]1C(=O)N(C)CC(=O)N[C@@H](CC(=O)O)C(=O)N[C@@H](C(C)C)C(=O)N(C)[C@@H](Cc2ccccc2)C(=O)N2C[C@H](N)C[C@H]2C(=O)N2CCC[C@@H]2C(=O)N[C@@H](Cc2c[nH]c3ccccc23)C(=O)N[C@@H](Cc2ccc(O)cc2)C(=O)N[C@@H](CC(C)C)C(=O)N[C@H](C(=O)NCC(N)=O)CSCC(=O)N[C@@H](Cc2ccccc2)C(=O)N(C)[C@@H](Cc2ccccc2)C(=O)N1C [Example 3178] ({CH2CO}-F[NMeF][NMeNle][Sar]DV[NMeF][Pro(4R-NH2)][dP]WYLCG-NH2; thioether N-13)	6.76 to 30.3 nM	4.78 to 72.9 nM			
CCCC[C@H]1C(=O)N(C)[C@@H](CCCC)C(=O)N[C@@H](CCC(=O)O)C(=O)N[C@H](C(=O)NCC(N)=O)CSCC(=O)N[C@@H](Cc2ccc(O)cc2)C(=O)N(C)[C@@H](C)C(=O)N[C@@H](CC(N)=O)C(=O)N2CCC[C@H]2C(=O)N[C@@H](Cc2c[nH]cn2)C(=O)N[C@@H](CCC(N)=O)C(=O)N2C[C@H](O)C[C@H]2C(=O)N[C@@H](Cc2c[nH]c3ccccc23)C(=O)N[C@@H](CCCCN)C(=O)N[C@@H](Cc2c[nH]c3ccccc23)C(=O)N1C [Example 5106] ({CH2CO}-Y[NMeA]NPHQ[Hyp]WKW[NMeNle][NMeNle]ECG-NH2; thioether N-14)	0.385 to 6.74 nM			0.158 to 4.71 nM	
CCCC[C@H]1C(=O)N(C)[C@@H](CCCC)C(=O)N[C@@H](CCCNC(=N)N)C(=O)NC(C(=O)NCC(N)=O)CSCC(=O)N[C@@H](Cc2ccc(O)cc2)C(=O)N(C)[C@@H](C)C(=O)N[C@@H](CC(N)=O)C(=O)N2CCC[C@H]2C(=O)N[C@@H](Cc2cnc[nH]2)C(=O)N[C@@H](CO)C(=O)N2C[C@H](O)C[C@H]2C(=O)N[C@@H](Cc2c[nH]c3ccccc23)C(=O)N[C@@H](CO)C(=O)N[C@@H](Cc2csc3ccccc23)C(=O)N1C (some centres unmarked) [Example 9070] ({CH2CO}-Y[NMeA]NPHS[Hyp]WS[Bta][NMeNle][NMeNle]R[ξC]G-NH2; thioether N-14)	6.76 to 30.3 nM			0.158 to 4.71 nM	
CCCC[C@H]1C(=O)N(C)CC(=O)N[C@@H](CC(=O)O)C(=O)N[C@@H](C(C)C)C(=O)N(C)[C@@H](Cc2ccccc2)C(=O)N[C@H](Cc2ccc(O)cc2)C(=O)N(C)CC(=O)N[C@@H](Cc2c[nH]c3ccccc23)C(=O)N[C@H](Cc2ccc(O)cc2)C(=O)N[C@@H](CC(C)C)C(=O)N[C@H](C(=O)NCC(N)=O)CSCC(=O)N[C@@H](Cc2ccccc2)C(=O)N(C)[C@@H](Cc2ccccc2)C(=O)N1C [Example 3564] (HELM PEPTIDE1{[O=C(C[*:3])[*:2]].F.[meF].[CCCC[C@@H](C(=O)[*:2])N(C)[*:1]].[Sar].D.V.[meF].[dY].[Sar].W.[dY].L.C.G.[am]}$PEPTIDE1,PEPTIDE1,1:R3-14:R3$$$V2.0)			> 10000 nM		> 10000 nM
CCCC[C@H]1C(=O)N[C@@H](CCCNC(=N)N)C(=O)NC(C(=O)NCC(N)=O)CSCC(=O)N[C@@H](Cc2ccc(O)cc2)C(=O)N(C)[C@@H](C)C(=O)N[C@@H](CC(N)=O)C(=O)N2CCC[C@H]2C(=O)N[C@@H](CO)C(=O)N[C@@H](CC(C)C)C(=O)N2C[C@H](O)C[C@H]2C(=O)N[C@@H](Cc2c[nH]c3ccccc23)C(=O)N[C@@H](CO)C(=O)N[C@@H](Cc2c[nH]c3ccccc23)C(=O)N(C)[C@@H](CCSC)C(=O)N1C (some centres unmarked) [Example 9100] ({CH2CO}-Y[NMeA]NPSL[Hyp]WSW[NMeM][NMeNle]R[ξC]G-NH2; thioether N-14)	0.385 to 6.74 nM			0.158 to 4.71 nM	
CCCC[C@H]1C(=O)N(C)CC(=O)N[C@@H](CC(=O)O)C(=O)N[C@@H](C(C)C)C(=O)N(C)[C@@H](Cc2ccccc2)C(=O)N[C@@H](Cc2ccc(O)cc2)C(=O)N(C)CC(=O)N[C@@H](Cc2c[nH]c3ccccc23)C(=O)N[C@@H](Cc2ccc(O)cc2)C(=O)N[C@@H](CC(C)C)C(=O)N[C@H](C(=O)NCC(N)=O)CSCC(=O)N[C@@H](Cc2ccc(OC)cc2)C(=O)N(C)[C@@H](Cc2ccccc2)C(=O)N1C [Example 3089] ({CH2CO}-Y(Me)[NMeF][NMeNle][Sar]DV[NMeF]Y[Sar]WYLCG-NH2; thioether N-13)	> 30.5 nM	> 74.3 nM			
